For assay [1], the system named is MMP-9. The assay is described as follows: MMP-9 activity by gelatin zymography in RPE cell supernatants. In kind it is cell-based. The note with it: RPE cells, pretreatment 1 μM, TGF-β1 2.5 ng/ml, 24 hours; TGF-β1 alone 3.2 fold. Here is the method:
FIGS. 2A-2C TAK1 regulates RPE cells EMT phenotype upon TGF-β stimulation. FIG. 2A: RPE cells were serum-starved for 16 hours, pretreated with 5Z-7-oxozeaenol (1 μM) or left untreated for 1 hour. The cells were then treated with TGF-β1 (2.5 ng/ml) as described herein for 24 h and immunostained with α-SMA antibodies (red) and DAPI (blue). Representative photographs of three independent experiments. The histogram in the bottom panel represents quantification of α-SMA antibody pixel intensity. FIG. 2B: RPE cells were serum-starved for 16 hours, then treated with mitomycin C (10 ng/ml) for 3 h. Thereafter, pretreated with 5Z-7-oxozeaenol (1 μM) or Dimethyl sulfoxide (DMSO) for 1 hour. Following this process a scratch was performed in the cell monolayer and the serum free medium was supplemented with TGF-β1 (2.5 ng/ml) or left unsupplemented. Scratches were photo-documented at the indicated times (top panel) and their width was measured using Image-J software. […] Bars are Mean±SD. FIG. 2C: RPE cells were serum-starved for 16 hours then pretreated with 5Z-7-oxozeaenol (1 μM) or SB431542 (10 μM), or DMSO for 1 hour. […] Total MMP-9 activities were processed by gelatin zymography (top panel) and the band intensity values were calculated by Quantity One® 1-D analysis software. […] Data is expressed as the Mean±SD.

For assay [2], the system named is E-cadherin. The assay is described as follows: E-cadherin immunostaining in RPE cells. As to conditions: 1 μM prior to TGF-β1 stimulation. In kind it is cell-based. Here is the method:
FIG. 3A: RPE cells were plated on fibronectin-coated glass coverslips, serum-starved for 16 hours, pretreated with 5Z-7-oxozeaenol (1 μM) or SB431542 (10 μM), or DMSO for 1 hour, then treated with or without TGF-β1 for 2 days. Following treatment, the cells were stained with rhodamine-phalloidin (actin fibers-red) and DAPI (blue) and visualized by confocal microscopy. Scale bars: […]. FIG. 3B: Serum-starved RPE cells pretreated with 5Z-7-oxozeaenol (1 μM) or DMSO for 1 hour, and were exposed to TGF-β as in FIG. 3A. Total RNA was extracted at each time point and qPCR was performed. Transcription levels of CTGF were determined after 6 h, 16 h and 24 h. Bars represent the specific mRNA amount relative to GAPDH mRNA in the same samples. All experiments were performed in triplicates. A representative histogram from two independent experiments is shown. FIG. 3C: RPE cells were plated and treated as in FIG. 3A. Following treatment, the cells were immunostained with E-cadherin antibodies (green) and DAPI (blue). Representative photographs of two independent experiments are shown. A recent publication has shown that down-regulation of the cell-cell adhesion protein E-cadherin, was considered a hallmark of EMT in RPE cells ([…] et al., Invest Ophthalmol Vis Sci 2010, 51:2755-2763). […]

The subject of assay [3] is RPE cells. The assay is described as follows: Floating collagen matrix contraction assay in full serum. In kind it is cell-based. The note with it: 1 μM, full medium, 24 hours, control cells 50%. Here is the method: FIG. 5A: RPE cells were pre-treated with or without 5Z-7-oxozeaenol (1 μM) and seeded in collagen lattices in full medium. The experiments were performed in triplicates. Lattices were photo-documented after 24 hours and measured using Image-J software. […] Bars are Mean±SD. The transition of RPE cells to myofibroblasts is characterized, among other aspects, by increased contractile activity (Umazume et al., Invest Ophthalmol Vis Sci 2013, 54:1150-1159; Sakamoto et al., Curr Eye Res 1994, 13:451-459; West-Mays et al., Int J Biochem Cell Biol 2006, 38:1625-1631; Ma et al., Clinical & experimental ophthalmology 2012, 40:e76-86). To examine whether TAK1 is a general regulator of the EMT process affecting cell contractility, floating collagen matrix contraction assay was performed. The test was carried out in full serum with or without TAK1 inhibitor (FIGS. 5A and 5B). While in the control cells significant contraction was observed after 24 hours, reaching 50% of the initial size, TAK1 inhibition impaired the capacity of the cells to contract. The collagen lattice remained nearly 80% from the initial size (FIGS. 5A and B).

For assay [4], the system named is TGF-β cascades in epithelial lung cells. The assay is described as follows: Western blot of TGF-β cascades in A549 lung cells. As to conditions: 1 μM for 1 hour, TGF-β 2.5 ng/ml. In kind it is cell-based. The method, then:
FIG. 14: Inhibition of TAK1 by 5z-7 abolishes the activation of TGF-β cascades in epithelial lung cells: Serum-starved A549 cells were pretreated with or without with 5Z-7-oxozeaenol (1 μM) for 1 hour and then with TGF-β (2.5 ng/ml) for the indicated times. Total protein extracts were analyzed by western blot using the indicated antibodies. […] Similarly, A549 lung cells were pretreated with or without with 5Z-7-oxozeaenol (1 μM) for 1 hour and then with TGF-β (2.5 ng/ml).
In general terms: Immunoblotting shows a protein as a band on a membrane.

The test system of assay [5] is aortic ring explants. The assay is described as follows: Aortic ring assay ex vivo. The note with it: aortic ring explants in Matrigel, 1 μM, 8 days. Here is the method: FIG. 15: TAK1 regulates the fibrotic switch in aortic injury ex vivo. aortic ring explants were seeded in Matrigel with or without 5z-7 (1 μM) for 8 days and then photo-documented. The photographs shown are representative from one of three independent experiments (N=9). As can been in the control aortic ring explants there is growth of sprouts due to the injury/fibrotic process.

Assay [6] relates to c57Black mice. The assay is described as follows: Dispase-induced PVR in mice (H&E histology). In kind it is in vivo. As to conditions: treated 96 hour post-dispase, H&E 96 hours later. The method, then:
96 hour post-treatment, the mice were further treated with 5Z-7-oxozeaenol left untreated, and 96 hours later, mice were sacrificed, eyes were enucleated and stained with hematoxylin and eosin (H&E). […] As shown in the middle panel, dispase caused PVR, manifested by loss of normal cellular architecture of the retina, presence of numerous inflammatory cells and presence of RPE cells throughout all retinal layers compared to the control (left panel). As shown in the right panel, treatment with 5Z-7-oxozeaenol maintained the normal retinal structure and prevented the development of the fibrotic response. 7-8 week old c57Black mice were treated or left untreated with dispase to generate PVR in the mice. 96 hour post-treatment, the mice were treated with 5Z-7-oxozeaenol or left untreated, and 96 hour later, mice were sacrificed, eye were […] and stained with hematoxylin and eosin (H&E).

For the compound `COc1cc(O)c2c(c1)/C=C/C[C@H](O)[C@H](O)C(=O)/C=C\C[C@H](C)OC2=O` [5Z-7-oxozeaenol], in assay [1], the “MMP-9 activity, fold higher than the control group” value came out at 1.59 fold. Also, the “E-cadherin expression upon TGF-β1” value in assay [2] is “allowing normal E-cadherin expression”. The “collagen lattice area relative to initial size” value in assay [3] is around 80%. In addition, the “fibrotic affect stimulated by TGF-β (western blot)” value in assay [4] was “abolishes the fibrotic affect”. For the same compound, in assay [5], the “fibrotic effect resultant from the injury process (sprout growth)” value is on record as “abolish the fibrotic effect”. Besides, the “development of the fibrotic response / retinal structure (PVR)” value in assay [6] was “prevents the development of the fibrotic response”.

For the origin of these results see patent publication US10206900B2, “Treatments for fibrotic diseases” (MOR RESEARCH APPLICATIONS LTD., priority 2013, dated 2019).
